Measurements from patent US20080108622A1, “COMBINATION THERAPY FOR THE TREATMENT OF PAIN” (priority 2006, published 2008).
Entries after “also recorded” stand apart in the source; their conditions may differ.

Key:
[1] = system: adult male rats; experiment: Postincisional hypersensitivity model of postoperative pain (paw incision, withdrawal threshold to von Frey filaments); type: in vivo, rat; conditions: intrathecal (i.t.), 24 h after paw incision surgery
Method: Animal preparation: Following Animal Care and Use Committee approval, an intrathecal (i.t.) catheter with tip in the lumbar space is inserted as previously described in adult male rats weighing 250 g (Yaksh and Rudy, Physiol Behav. 1976, 7, 1032-1036). One week following the insertion of the i.t. catheter, paw incision surgery is performed as previously described (Brennan et al., Pain 1996, 64, 493-501). Briefly, animals are anesthetized with halothane, and a 1-cm long incision is made in the plantar aspect of the left hind paw starting 0.5 cm from the edge of the heel toward the toe after sterile preparation with 70% ethanol. The plantaris muscle is elevated and incised longitudinally. The wound is closed with 2 mattress sutures of 5.0 silk. Subsequently, withdrawal threshold to von Frey filaments is determined one day after surgery (Chaplan et al., J. Neurosci. Methods, 1994, 53, 55-63). For all testing but pilot dose ranging studies, investigators are blinded to study drug administration. A cut off value of 22 g is used. […]
Single drug injection: For single drug administration, a volume containing 5 μL drug is used, followed by 10 μL of saline. […] Dose response curves are first constructed, and ED40 values for single drugs are then determined at the time of peak effect.
Drug interaction: For the combination of T-62 with morphine and NBQX, two injections are performed since the time of peak effect for morphine and NBQX is 30 min earlier than that of T-62 (T-62 is injected 30 min before drug injections). Paw withdrawal thresholds are determined before surgery, before drug injection, and 30, 60, 90, 120, 150, 180, and 210 min after the second drug injection. […] The dose response curves are then constructed for the combined drugs, and the ED40 values of the combined drugs are calculated at the time point of peak effect. […]
Data analysis: Data are presented as mean ±S.E. Withdrawal threshold data are analyzed by two-way analysis of variance followed by Fisher's LSD test. […] Isobolograms are statistically analyzed by student T test.

[2] = cited from earlier work
[3] = system: male Sprague-Dawley rats; experiment: Neuropathic pain model (Chung model, spinal nerve ligation, withdrawal threshold to von Frey filaments); type: in vivo, rat; conditions: Chung model of chronic neuropathic pain, FIG. 8; for anti-allodynic effects: intrathecal single injection
Source text: Spinal Nerve Ligation: After Animal Care and Use Committee approval, male Sprague-Dawley rats (Harlan, Indianapolis, Ind., USA) weighing 180-200 g undergo anesthesia as previously described by Kim and Chung (Pain 1992, 50, 355-363). Briefly, under general anesthesia with inhalational halothane, the left L5 and L6 spinal nerves are identified through a small laminotomy and tightly ligated. Approximately one week later, an intrathecal catheter is placed under general anesthesia by insertion under direct vision of a polyethylene catheter through a small slit in the dura at the cisterna magnum, and advanced 8.5 cm such that the catheter tip resides in the lower lumbar intrathecal space. Animals are studied approximately one week later. Ligation of the lumbar spinal nerves results in a primarily unilateral increase in the sensitivity to light touch on the operated side. Sensitivity is assessed via application of calibrated von Frey filaments. The withdrawal threshold is determined using an up down method as previously described by Chaplan et al. (J. Neurosci. Methods 1994, 53, 55-63).
Experimental Design: Animals receive, at least 4 weeks after spinal nerve ligation surgery, and at least 1 week after intrathecal catheter insertion, single injections of vehicle (β-cyclodextrin) or the drug substance, using a randomized and blinded protocol. Withdrawal thresholds are determined at intervals for up to 20 hr after injection.

| SMILES | anti-hypersensitivity effect (reduction of mechanical hypersensitivity) [1] | anti-allodynic effects [3] | further results |
| --- | --- | --- | --- |
| CN1CC[C@]23c4c5ccc(O)c4O[C@H]2[C@@H](O)C=C[C@H]3[C@H]1C5 [Morphine, morphine, reference compound] | reduces mechanical hypersensitivity in a time and dose dependent manner |  |  |
| NS(=O)(=O)c1cccc2c1c([N+](=O)[O-])cc1nc(O)c(O)nc12 [NBQX, 2,3-dihydroxy-6-nitro-7-sulfamoylbenzo(f)quinoxaline, reference compound] | reduces the mechanical hypersensitivity in a time and dose dependent manner |  |  |
| Nc1sc2c(c1C(=O)c1ccc(Cl)cc1)CCCC2 [T-62, (2-amino-4,5,6,7-tetrahydrobenzo[b]thiophen-3-yl)(4-chlorophenyl)methanone] | reduced mechanical hypersensitivity in a time dependent manner; also recorded: modest effect | dose-dependent anti-allodynic effects | effect on inflammatory and neuropathic pain ([2]; literature (Li et al. 2003, Li et al. 2002, Pan et al. 2001; US 6,248,774, US 6,489,356)): reduce inflammatory and neuropathic pain; oral efficacy ([2]; literature): orally effective; adverse side effects ([2]; literature, compared with administration of adenosine): avoid of the adverse side effects associated with administration of adenosine |
| Nc1sc2c(c1C(=O)c1ccccc1)CCS2 [formula (Ib)] |  | dose-dependent anti-allodynic effects |  |
| Nc1sc2c(c1C(=O)c1cccc3ccccc13)CCC2 [formula (Ic)] |  | dose-dependent anti-allodynic effects | relative potency among the three enhancers [3]: most potent enhancer of the three agents |
